The test system of one experiment is DMF5 TCR on J+ cells. The experiment can be described thus: J+ cell immunostimulation by peptide-engineered APC-EVs. Format: cell-based, human. The conditions noted are these: 2x10^9 particles, 24 hours.
Experiment [1] concerns surface HLA*A02:01 on engineered K562 cells (K+). As to the kind of experiment: Flow cytometry peptide exchange / antigen presentation assay on K562 cells. Type of experiment: cell-based, human. The conditions noted are these: 1 uM AF555 N-terminal tagged peptide, 5 uM GL dipeptide, 1 uM brefeldin A, 3 hours, N=4. In general terms: A flow cytometer gives signals particle by particle.
Procedure: (K+) that only expresses the HLA*A02:01 allele (see Methods).
To validate ExoGAN at the cellular level, we used engineered K562[53] cells (K+) that only express surface HLA*A02:01. Native K562 cells (K−) and K+ cells were grown in complete 1640-RPMI (Gibco) media and harvested at 1 x 10^6 cells. Based on the method reported by Saini et al.[70], cells were incubated with 1 uM AF555 N-terminal tagged peptides with or without the 5 uM GL dipeptide in 1 uM brefeldin A for 3 hours in a 96 well plate. Total volume was 200 uL per well. Cells were washed 3x and subjected to flow cytometry for HLA*A02:01 affinity.

Experiment [2] has as its target HLA-A*02:01 on engineered K562 cells (K+) and on extracellular vesicles isolated from them (human). The experiment can be described thus: nano flow cytometry on extracellular vesicles; EVs isolated from K+ cells incubated with 1 uM AF647-tagged peptide and 5 uM GL dipeptide, ultrafiltered (10k MWCO), stained with an AF488 HLA-A*02:01 antibody; NanoFCM.

Where no end group is shown, it is not given here.

Procedure for DMF5 TCR on J+ cells: We designed EVs derived from K+ cells with ExoGAN-designed peptides to precisely activate J+ cells expressing the melanoma TCR, DMF5.
100 uL of the isolate solution was combined with a 100 uL mastermix solution containing 5 uM GL dipeptide and 1 uM peptide. The 200 uL solution was incubated on a revolver at 4°c for 1.5 hours, following purification by ultrafiltration using a 10k MWCO column into a 30 uL solution. 10 uL was used for zeta potential, nano flow cytometry to assess peptides binding onto HLA-A*02:01 and 10 uL was used to assess CD69 expression and IL-2 secretion from J+ cells. To measure J+ functionality, 2x10^5 J+ cells in 190 uL were added to a 96 round bottom well plate, followed by adding the 10 uL isolate solution. 24 hours later, CD69 was evaluated with flow cytometry

For the molecule FLIHSRNHD [Exo_1], the “CD69 median fluorescent intensity of J+ cells” value in the experiment on DMF5 TCR on J+ cells (2x10^5 J+ cells, flow cytometry, N=4) is “outperformed MART-1”. Further, in the experiment on DMF5 TCR on J+ cells (J+ cells, ELISA, Dunnett's test corrected one-way ANOVA, p <0.05), the “IL-2 secretion of J+ cells” value was “significantly more”.

As for FLIDLAFLI [IEDB, reference compound], in experiment [1], the “peptide presentation on K+ cells (AF555 median fluorescent intensity)” value is on record as “most potent peptide binders”.

For CLICMDMVV [Exo_4], the “peptide presentation on K+ cells (AF555 median fluorescent intensity)” value in experiment [1] is given as “most potent peptide binders”.

HHMNMSMSK (also: AF647-tagged, position not given here) [Exo_2, AF647-tagged] showed a percent peptide binding in experiment [2] of 100%.

Regarding FLIHSRNHD (also: AF647-tagged, position not given here) [Exo_1, AF647-tagged], the percent peptide binding in experiment [2] was 100%.

The molecule CLICMDMVV (cysteine pairing not given here; also: AF647-tagged, position not given here) [Exo_4, AF647-tagged] came in with a percent peptide binding in experiment [2] of 100%.

The molecule AAICTLLYD (also: AF647-tagged, position not given here) [Exo_3, AF647-tagged] registered a percent peptide binding in experiment [2] of 100%.

The values above are taken from article PMC12270203, “The ExoGAN generative AI framework enables extracellular vesicle-based immunotherapy” (Research Square, 2025).
